From ChEMBL document CHEMBL1201862, “PubChem BioAssay data set” (2004)
The source made the active and inactive calls.

Tests used:
[1] = growth induction of Burl-1 ts yeast mutant, dose response, counter-screen for SUMOylation pathway inhibitor project, whole organism, S. cerevisiae, luminescence (AID 463199); format: functional
[2] = target: T1, Aryl hydrocarbon receptor (Homo sapiens, UniProt P35869); test: Luminescence-based cell-based high throughput dose response assay for activators of the Aryl Hydrocarbon Receptor (AHR). [Related pubchem assays: 2796 (Primary screen (AHR activators in singlicate)), 2845 (Confirmation screen (AHR activators in triplicate)), 434939 (Counterscreen (PXR activators in triplicate)), 2804 (Summary (AHR activators))]; format: ADME
T1 sequence (P35869 whole entry): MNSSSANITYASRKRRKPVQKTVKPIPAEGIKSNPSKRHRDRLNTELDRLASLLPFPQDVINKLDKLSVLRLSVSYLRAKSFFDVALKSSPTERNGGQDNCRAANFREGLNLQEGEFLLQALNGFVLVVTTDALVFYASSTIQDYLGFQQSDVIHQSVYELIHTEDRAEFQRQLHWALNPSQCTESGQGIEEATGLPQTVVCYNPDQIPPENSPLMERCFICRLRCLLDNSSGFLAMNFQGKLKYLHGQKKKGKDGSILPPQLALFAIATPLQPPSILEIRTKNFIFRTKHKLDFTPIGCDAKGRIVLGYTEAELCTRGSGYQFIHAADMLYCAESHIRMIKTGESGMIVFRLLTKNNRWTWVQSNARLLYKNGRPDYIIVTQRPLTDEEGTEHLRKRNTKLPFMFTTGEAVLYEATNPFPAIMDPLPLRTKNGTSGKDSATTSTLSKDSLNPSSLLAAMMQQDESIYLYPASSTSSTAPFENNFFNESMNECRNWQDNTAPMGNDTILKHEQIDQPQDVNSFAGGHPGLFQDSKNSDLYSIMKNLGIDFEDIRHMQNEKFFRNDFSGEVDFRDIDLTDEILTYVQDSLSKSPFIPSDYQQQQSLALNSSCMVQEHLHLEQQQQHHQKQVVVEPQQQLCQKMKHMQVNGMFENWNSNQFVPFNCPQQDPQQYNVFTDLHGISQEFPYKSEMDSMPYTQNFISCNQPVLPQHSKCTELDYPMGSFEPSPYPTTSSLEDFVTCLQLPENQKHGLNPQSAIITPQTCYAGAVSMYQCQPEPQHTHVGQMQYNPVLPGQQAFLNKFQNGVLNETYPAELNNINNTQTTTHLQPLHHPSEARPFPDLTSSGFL

CAAX prenyl protease 2 [3] = target: T2, CAAX prenyl protease 2 (Saccharomyces cerevisiae S288c, UniProt Q03530); format: biochemical
T2 sequence (Q03530 whole entry): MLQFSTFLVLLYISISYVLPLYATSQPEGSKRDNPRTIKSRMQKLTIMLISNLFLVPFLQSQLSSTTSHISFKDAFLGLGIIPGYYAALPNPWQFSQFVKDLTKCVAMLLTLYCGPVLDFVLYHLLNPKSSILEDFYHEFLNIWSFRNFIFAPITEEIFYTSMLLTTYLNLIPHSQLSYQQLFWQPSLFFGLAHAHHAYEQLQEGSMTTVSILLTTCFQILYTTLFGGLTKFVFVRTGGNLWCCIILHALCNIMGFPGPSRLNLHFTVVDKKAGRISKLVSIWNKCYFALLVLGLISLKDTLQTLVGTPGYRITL

CAAX prenyl protease 1 = CAAX prenyl protease 1 (Saccharomyces cerevisiae S288c, UniProt P47154); test: Ste24 protease inhibitors, dose response, biochemical, S. cerevisiae, plate reader, cherry-pick (AID 488815)
CAAX prenyl protease 1, sequence (P47154 whole entry): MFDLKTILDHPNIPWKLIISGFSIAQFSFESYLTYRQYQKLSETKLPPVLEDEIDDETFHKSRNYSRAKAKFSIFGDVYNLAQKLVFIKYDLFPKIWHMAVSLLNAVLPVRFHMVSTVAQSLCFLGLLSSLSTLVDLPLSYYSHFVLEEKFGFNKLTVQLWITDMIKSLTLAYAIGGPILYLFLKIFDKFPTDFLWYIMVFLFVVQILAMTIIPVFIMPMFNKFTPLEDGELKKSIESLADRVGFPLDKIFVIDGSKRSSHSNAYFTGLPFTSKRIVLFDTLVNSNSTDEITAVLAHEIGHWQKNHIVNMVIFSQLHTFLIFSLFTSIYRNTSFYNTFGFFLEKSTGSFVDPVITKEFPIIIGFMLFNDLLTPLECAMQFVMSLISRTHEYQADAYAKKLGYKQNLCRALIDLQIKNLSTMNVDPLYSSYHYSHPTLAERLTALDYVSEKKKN

CAAX prenyl protease 2 [4] = target: T3, CAAX prenyl protease 2 (Homo sapiens, UniProt Q9Y256); test: human Rce1 protease inhibitors, dose response, biochemical, yeast membranes, quenched-peptide fluorescence, cherry-pick (AID 588849)
T3 sequence (Q9Y256 whole entry): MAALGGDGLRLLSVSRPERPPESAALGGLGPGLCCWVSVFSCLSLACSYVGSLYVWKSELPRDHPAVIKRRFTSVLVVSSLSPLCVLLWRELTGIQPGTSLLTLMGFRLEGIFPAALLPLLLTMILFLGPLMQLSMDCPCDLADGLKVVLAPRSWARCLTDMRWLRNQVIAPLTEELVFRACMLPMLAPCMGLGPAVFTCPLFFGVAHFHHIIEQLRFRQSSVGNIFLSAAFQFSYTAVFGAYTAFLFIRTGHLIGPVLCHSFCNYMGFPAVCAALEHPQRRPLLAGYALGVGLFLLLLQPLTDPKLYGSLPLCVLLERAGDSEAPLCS

[5] = target: DNA repair and recombination protein RAD54-like (Homo sapiens, UniProt Q92698); test: inhibitors of human RAD54 branch migration, confirmation, biochemical, fluorescence, cherry-picked samples, dose series (AID 651657); format: functional
DNA repair and recombination protein RAD54-like, sequence (Q92698 whole entry): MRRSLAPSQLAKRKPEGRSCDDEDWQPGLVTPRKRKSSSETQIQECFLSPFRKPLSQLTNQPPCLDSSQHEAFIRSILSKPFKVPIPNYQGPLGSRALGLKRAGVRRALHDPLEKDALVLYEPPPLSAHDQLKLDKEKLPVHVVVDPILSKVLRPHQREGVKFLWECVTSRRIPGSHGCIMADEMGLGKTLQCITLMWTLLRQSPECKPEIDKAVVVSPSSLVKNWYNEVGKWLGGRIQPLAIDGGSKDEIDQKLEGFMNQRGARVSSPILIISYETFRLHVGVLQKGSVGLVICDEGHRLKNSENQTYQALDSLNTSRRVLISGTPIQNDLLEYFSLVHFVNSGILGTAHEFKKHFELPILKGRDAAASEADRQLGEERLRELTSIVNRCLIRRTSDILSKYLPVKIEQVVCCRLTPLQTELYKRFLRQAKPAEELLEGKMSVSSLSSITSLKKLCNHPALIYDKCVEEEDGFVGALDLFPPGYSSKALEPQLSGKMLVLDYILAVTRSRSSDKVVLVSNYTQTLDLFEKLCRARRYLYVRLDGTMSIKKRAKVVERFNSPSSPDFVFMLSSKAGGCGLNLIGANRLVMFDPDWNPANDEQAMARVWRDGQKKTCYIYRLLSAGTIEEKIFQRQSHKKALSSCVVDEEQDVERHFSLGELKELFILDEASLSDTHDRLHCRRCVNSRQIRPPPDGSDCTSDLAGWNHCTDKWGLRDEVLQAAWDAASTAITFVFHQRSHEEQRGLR

[6] = NIH-3T3 fibroblast cytotoxicity, dose response, cytotoxicity control, cell-based, fluorescence, Alamar Blue, secondary assay (AID 2327); format: functional;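 also: NIH-3T3 mouse fibroblasts cultured with fluconazole at 8 µg/mL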
[7] = C. albicans growth with fluconazole, confirmation, fluorescence, retest (AID 2467); format: functional, cell-based
[8] = target: T4, Serine/threonine-protein phosphatase (Candida dubliniensis (strain CD36 / CBS 7987 / NCPF 3949 / NRRLY-17841) (Yeast), UniProt B9W6M3); test: calcineurin pathway inhibitors in yeast reporter, dose response, S. cerevisiae, CDRE-lacZ, luminescence, secondary (AID 2388); format: functional, cell-based;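 also: yeast reporter cells carrying a calcineurin-responsive lacZ construct stimulated with calcium chloride; luminescent beta-galactosidase reporter signal in whole cells rather than isolated phosphatase activity; potency for inhibition where a drop in reporter signal means calcineurin blockade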
T4 sequence (B9W6M3 whole entry): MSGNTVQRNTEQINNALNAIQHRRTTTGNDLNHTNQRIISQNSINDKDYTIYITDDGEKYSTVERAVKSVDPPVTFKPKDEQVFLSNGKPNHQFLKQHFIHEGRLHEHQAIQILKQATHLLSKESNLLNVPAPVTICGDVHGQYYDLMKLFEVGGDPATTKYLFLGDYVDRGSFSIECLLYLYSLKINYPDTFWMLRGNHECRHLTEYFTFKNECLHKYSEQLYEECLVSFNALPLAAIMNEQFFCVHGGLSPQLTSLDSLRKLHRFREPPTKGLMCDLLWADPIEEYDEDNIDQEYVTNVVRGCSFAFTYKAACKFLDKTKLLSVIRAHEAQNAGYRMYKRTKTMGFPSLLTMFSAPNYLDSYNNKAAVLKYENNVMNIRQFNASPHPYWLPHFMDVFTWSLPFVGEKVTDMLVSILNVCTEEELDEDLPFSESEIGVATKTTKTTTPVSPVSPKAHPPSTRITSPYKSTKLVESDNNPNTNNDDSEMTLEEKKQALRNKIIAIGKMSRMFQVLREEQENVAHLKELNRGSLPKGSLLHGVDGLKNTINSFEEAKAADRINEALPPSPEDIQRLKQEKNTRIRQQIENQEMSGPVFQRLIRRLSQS

[9] = target: T4, Serine/threonine-protein phosphatase; test: Fluorescence Cell-Based Secondary Assay to Identify Inhibitors of Calcineurin. [Related pubchem assays (depositor defined):AID1979, AID2007]; format: functional
[10] = target: ATP-dependent molecular chaperone HSP82 (Candida albicans (strain WO-1) (Yeast), UniProt C4YTQ8); test: loss of DOC-induced GRE-beta-galactosidase reporter signal, dose response, Hsp90 inhibitor project, S. cerevisiae, luminescence (AID 2400); format: functional, cell-based;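 also: beta-galactosidase luminescence from glucocorticoid response element reporter as proxy for Hsp90 function; inhibitor potency where signal loss means Hsp90 inhibition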
ATP-dependent molecular chaperone HSP82, sequence (C4YTQ8 whole entry): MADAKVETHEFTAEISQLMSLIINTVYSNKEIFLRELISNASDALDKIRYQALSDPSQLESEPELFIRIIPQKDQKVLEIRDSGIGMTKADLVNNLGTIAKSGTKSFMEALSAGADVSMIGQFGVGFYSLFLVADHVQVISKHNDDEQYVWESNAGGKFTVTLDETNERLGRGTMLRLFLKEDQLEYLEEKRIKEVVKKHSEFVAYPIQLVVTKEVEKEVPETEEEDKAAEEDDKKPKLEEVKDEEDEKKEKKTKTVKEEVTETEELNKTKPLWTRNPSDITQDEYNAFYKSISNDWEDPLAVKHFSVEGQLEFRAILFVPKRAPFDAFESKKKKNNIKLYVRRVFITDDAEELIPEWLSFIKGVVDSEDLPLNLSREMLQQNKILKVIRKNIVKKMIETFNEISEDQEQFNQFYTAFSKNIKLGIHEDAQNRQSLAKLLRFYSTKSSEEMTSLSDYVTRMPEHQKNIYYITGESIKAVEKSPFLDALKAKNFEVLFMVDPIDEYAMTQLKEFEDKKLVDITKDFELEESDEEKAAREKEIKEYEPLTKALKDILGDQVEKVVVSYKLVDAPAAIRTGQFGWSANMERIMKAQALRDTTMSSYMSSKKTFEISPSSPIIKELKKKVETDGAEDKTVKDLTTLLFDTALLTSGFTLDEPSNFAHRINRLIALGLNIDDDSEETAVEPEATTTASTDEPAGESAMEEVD

Protein skinhead-1 = target: T5, Protein skinhead-1 (Caenorhabditis elegans, UniProt P34707); format: functional
T5 sequence (P34707 whole entry): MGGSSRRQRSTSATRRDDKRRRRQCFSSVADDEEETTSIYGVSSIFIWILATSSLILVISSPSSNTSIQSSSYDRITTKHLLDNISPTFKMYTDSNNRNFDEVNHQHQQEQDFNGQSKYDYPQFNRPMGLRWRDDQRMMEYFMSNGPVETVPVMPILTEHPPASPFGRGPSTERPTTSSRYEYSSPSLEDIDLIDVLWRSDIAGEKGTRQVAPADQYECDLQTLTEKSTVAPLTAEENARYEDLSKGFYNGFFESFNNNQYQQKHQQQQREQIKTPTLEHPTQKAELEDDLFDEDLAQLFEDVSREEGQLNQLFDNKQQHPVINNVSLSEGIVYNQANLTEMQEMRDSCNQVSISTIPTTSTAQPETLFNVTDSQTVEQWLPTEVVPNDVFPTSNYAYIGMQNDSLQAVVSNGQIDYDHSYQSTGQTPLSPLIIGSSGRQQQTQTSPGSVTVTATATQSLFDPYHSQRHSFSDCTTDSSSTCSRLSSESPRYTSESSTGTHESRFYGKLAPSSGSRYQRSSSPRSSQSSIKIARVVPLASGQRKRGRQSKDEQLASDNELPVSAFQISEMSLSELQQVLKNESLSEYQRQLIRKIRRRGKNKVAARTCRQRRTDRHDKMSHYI

Cytochrome P450 2C19 = Cytochrome P450 2C19 (Homo sapiens, UniProt P33261); test: Cytochrome panel assay with activity outcomes. Panel member name: p450-cyp2c19 Compounds with AC50 equal or less than 10 uM are considered active; format: functional; details: read-out: AC50
Cytochrome P450 2C19, sequence (P33261 whole entry): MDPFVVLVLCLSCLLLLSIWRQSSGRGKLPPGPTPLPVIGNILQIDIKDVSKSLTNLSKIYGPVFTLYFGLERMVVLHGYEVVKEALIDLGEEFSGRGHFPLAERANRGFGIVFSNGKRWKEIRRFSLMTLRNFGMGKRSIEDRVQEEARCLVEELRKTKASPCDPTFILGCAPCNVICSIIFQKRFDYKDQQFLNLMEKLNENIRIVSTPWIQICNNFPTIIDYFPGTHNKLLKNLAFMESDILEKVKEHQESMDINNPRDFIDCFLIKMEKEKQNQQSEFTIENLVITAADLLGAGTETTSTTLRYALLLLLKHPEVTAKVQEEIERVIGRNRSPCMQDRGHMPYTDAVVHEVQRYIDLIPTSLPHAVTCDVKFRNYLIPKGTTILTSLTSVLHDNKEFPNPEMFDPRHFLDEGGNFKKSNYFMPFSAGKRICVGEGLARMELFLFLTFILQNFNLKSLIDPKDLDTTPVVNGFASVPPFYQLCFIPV

Cytochrome P450 2D6 = Cytochrome P450 2D6 (Homo sapiens, UniProt P10635);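 also: CYP2D6 member of a cytochrome P450 panel assay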
Cytochrome P450 2D6, sequence (P10635 whole entry): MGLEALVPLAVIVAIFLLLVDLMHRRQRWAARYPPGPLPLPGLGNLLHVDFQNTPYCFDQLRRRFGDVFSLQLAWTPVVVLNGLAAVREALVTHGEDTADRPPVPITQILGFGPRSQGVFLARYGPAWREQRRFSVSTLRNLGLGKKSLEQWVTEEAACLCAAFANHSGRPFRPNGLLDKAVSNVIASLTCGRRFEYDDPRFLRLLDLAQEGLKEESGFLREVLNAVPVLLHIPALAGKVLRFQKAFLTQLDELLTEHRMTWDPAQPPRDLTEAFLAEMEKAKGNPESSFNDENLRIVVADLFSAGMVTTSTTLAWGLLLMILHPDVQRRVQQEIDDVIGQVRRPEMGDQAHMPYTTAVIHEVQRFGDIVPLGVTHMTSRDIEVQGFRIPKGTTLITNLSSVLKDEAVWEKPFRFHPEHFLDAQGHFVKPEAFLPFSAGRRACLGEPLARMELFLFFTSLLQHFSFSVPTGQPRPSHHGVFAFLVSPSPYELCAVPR

Cytochrome P450 3A4 = Cytochrome P450 3A4 (Homo sapiens, UniProt P08684);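 also: CYP3A4 tested as one member of a cytochrome P450 panel screen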
Cytochrome P450 3A4, sequence (P08684 whole entry): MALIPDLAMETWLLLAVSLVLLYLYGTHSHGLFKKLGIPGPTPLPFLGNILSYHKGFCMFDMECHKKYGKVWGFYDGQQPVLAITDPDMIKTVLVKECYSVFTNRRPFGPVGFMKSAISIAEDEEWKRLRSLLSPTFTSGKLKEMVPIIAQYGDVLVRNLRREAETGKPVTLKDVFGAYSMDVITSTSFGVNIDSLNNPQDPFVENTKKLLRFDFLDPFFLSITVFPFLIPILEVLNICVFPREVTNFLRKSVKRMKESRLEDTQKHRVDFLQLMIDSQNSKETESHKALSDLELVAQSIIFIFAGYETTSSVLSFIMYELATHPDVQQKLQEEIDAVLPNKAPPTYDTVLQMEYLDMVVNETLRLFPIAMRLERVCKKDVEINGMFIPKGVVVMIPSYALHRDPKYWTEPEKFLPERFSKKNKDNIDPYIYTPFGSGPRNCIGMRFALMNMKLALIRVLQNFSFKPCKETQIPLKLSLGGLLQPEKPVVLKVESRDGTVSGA

[11] = target: UDP-galactopyranose mutase (Mycobacterium tuberculosis, UniProt P9WIQ1); test: Inhibitors of Mycobacterium tuberculosis UDP-galactopyranose mutase (UGM) enzyme Measured in Biochemical System Using Plate Reader - 2105-02_Inhibitor_Dose_CherryPick_Activity. [Related pubchem assays (depositor defined):AID504439]
UDP-galactopyranose mutase, sequence (P9WIQ1 whole entry): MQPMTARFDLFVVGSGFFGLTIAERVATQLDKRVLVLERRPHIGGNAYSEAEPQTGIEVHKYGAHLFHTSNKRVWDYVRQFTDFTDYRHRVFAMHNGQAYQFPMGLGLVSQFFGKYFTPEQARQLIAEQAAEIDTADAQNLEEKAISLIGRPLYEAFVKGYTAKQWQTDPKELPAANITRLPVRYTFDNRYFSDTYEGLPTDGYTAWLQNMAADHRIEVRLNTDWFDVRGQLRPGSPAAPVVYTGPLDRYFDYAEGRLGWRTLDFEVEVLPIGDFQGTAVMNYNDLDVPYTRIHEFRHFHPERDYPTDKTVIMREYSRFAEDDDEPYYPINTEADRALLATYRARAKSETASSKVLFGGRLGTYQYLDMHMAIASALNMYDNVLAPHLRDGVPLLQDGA

HEK293 [12] = test: NOD1 signaling inhibitors, primary screen, cell-based, luminescence, uHTS (AID 1578); format: functional; details: Homo sapiens
[13] = tested on: Streptococcus sp. 'group A'; test: growth inhibition of control SK(-) GAS strain, dose response, counter-screen for streptokinase expression inhibitor project, luminescence, kanamycin, BacTiterGlo, confirmation (AID 1900); format: functional, organism-based
HEK293 [14] = test: cells; format: functional, cell-based; details: Homo sapiens
Streptokinase A = target: T6, Streptokinase A (Streptococcus pyogenes serotype M1, UniProt P10520); test: S. pyogenes streptokinase expression inhibitors, potency, dose response, plasminogen activation absorbance, OD405 (AID 1914); format: functional, Streptococcus pyogenes M1 GAS;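 also: secreted streptokinase activity via plasminogen activation per viability signal from cell pellet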
T6 sequence (P10520 whole entry): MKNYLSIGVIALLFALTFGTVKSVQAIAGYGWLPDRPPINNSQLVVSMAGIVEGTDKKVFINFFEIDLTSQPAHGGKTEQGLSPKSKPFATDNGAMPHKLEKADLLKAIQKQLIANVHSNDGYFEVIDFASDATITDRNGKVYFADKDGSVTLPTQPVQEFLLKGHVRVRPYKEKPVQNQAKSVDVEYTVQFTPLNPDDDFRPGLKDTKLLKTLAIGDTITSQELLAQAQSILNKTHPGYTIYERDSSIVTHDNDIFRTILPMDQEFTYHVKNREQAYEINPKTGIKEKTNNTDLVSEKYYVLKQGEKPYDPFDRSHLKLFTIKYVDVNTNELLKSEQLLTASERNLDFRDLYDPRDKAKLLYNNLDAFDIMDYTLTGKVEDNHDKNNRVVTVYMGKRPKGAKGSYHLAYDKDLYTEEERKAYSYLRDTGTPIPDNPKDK

HEK293 [15] = test: cells; format: functional, cell-based; details: Homo sapiens; remark: listed apart in the source
[16] = target: Nucleotide-binding oligomerization domain-containing protein 2 (Homo sapiens, UniProt Q9HC29); test: NOD2 signaling inhibitors, cell-based, luminescence, uHTS, HEK293 (AID 1566); format: functional
Nucleotide-binding oligomerization domain-containing protein 2, sequence (Q9HC29 whole entry, the tested form may be a part): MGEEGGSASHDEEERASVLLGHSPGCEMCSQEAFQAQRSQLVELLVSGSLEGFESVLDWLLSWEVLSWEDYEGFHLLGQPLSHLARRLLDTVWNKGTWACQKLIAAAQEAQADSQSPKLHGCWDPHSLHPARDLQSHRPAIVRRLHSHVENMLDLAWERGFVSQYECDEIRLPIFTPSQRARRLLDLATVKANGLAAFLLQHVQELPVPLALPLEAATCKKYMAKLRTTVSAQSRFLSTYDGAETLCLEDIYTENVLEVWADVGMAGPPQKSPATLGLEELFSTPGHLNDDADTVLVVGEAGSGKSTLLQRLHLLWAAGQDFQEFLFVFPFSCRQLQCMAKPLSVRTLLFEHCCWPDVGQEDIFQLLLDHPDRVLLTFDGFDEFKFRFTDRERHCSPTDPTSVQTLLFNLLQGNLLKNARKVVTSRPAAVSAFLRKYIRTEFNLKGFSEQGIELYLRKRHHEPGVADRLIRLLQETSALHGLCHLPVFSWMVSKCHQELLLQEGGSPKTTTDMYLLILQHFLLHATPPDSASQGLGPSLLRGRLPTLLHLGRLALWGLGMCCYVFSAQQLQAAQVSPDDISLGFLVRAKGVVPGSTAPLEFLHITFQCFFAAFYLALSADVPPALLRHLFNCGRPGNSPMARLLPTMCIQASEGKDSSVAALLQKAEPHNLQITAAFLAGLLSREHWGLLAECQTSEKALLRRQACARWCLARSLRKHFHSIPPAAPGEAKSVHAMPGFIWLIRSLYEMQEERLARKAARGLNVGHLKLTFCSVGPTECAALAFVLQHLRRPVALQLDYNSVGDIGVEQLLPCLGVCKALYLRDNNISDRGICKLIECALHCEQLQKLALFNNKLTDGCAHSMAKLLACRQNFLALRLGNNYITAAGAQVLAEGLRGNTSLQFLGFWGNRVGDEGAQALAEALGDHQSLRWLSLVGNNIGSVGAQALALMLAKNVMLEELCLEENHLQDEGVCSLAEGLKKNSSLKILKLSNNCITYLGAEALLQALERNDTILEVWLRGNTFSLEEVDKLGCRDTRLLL

HEK293 [17] = test: NOD2 signaling inhibitors in MDP-stimulated cells, cell-based, uHTS, luminescence (AID 2001); format: functional; details: Homo sapiens
HEK293 [18] = test: cells; format: functional, cell-based; details: Homo sapiens; remark: listed apart in the source
Streptococcus = test: Group A Streptococcus viability loss, dose response, counter-screen for streptokinase expression inhibitor project, luminescence, BacTiterGlo (AID 1915); format: functional, organism-based;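 also: potency for reduction of bacterial viability or growth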

OCCc1c[nH]c2cc(F)ccc12
AC50 [1]: 73.3 µM (active)

CN1CCN(CCCNC(=O)c2cc3c(-c4ccc(Cl)cc4)nn(C)c3s2)CC1
EC50 [2]: 0.483 µM (active)
AC50 (CAAX prenyl protease 2 [3]): 7.05 µM (active)
AC50 (CAAX prenyl protease 1): 6.07 µM (active)
AC50 (CAAX prenyl protease 2 [4]): 15.8 µM (active)
AC50 [5]: 33.6 µM (active)

O=C(Nc1sc2c(c1C(=O)c1ccc(Cl)cc1)CCCC2)c1cccnc1
EC50 [6]: > 160 µM (inactive)
EC50 [7]: 0.18 µM (active)
EC50 [8]: > 180 µM (inactive)
EC50 [9]: 27.6 µM (inconclusive)
AC50 (CAAX prenyl protease 2 [4]): 24.3 µM (active)
EC50 [10]: 28.2 µM (active)
IC50 (Protein skinhead-1): > 100 µM (inactive)

CCc1ccc(C(CC(=O)c2ccc(Cl)cc2)C(=O)O)cc1 (stereo unspecified)
AC50 (Cytochrome P450 2C19): 0.00562 µM (inconclusive)
AC50 (Cytochrome P450 2D6): inconclusive
AC50 (Cytochrome P450 3A4): inconclusive

Cc1cc(C)c(S(=O)(=O)Nc2ccc(C(=O)O)cc2)cc1S(=O)(=O)Nc1ccc(C(=O)O)cc1
AC50 [11]: 423 µM (active)

CCCCCCc1cc2cc(C(=O)OCC)c(=O)oc2cc1O
EC50 (HEK293 [12]): 5.81 µM (active)
EC50 [13]: 10.8 µM (active)
IC50 (HEK293 [14]): 7.71 µM (active)
EC50 (Streptokinase A): 12.8 µM (active)
IC50 (HEK293 [15]): 15.8 µM (active)
EC50 [16]: 12.6 µM (active)
IC50 (HEK293 [17]): 6.52 µM (inactive)
IC50 (HEK293 [18]): > 20 µM (inactive)
EC50 (Streptococcus): > 150 µM (not active)
